Experimental data from article PMC7889231 (Journal of Enzyme Inhibition and Medicinal Chemistry, 2021).
Where two headings read alike, the source gives them in different places.

Tests used:
tubulin = test: In vitro tubulin polymerisation inhibition (turbidimetric, fluorescent plate reader); assay type: biochemical; conditions: mean of three experiments
Method: The inhibition assay on microtubule polymerisation was evaluated turbidimetrically using a fluorescent plate reader.
The effect of the synthesised compounds on tubulin polymerisation was assessed turbidimetrically using a fluorescent plate reader method. The complete procedure was depected in Supplementary data.

HCT-116 = test: MTT anti-proliferative assay, HCT-116; assay type: cell-based, human; conditions: for IC50: Homo sapiens
HepG-2 = test: MTT anti-proliferative assay, HepG-2; assay type: cell-based, human; conditions: for IC50: Homo sapiens
MCF-7 = test: MTT anti-proliferative assay, MCF-7; assay type: cell-based, human; conditions: for IC50: Homo sapiens
[1] = test system: HepG-2, HCT-116, and MCF-7; test: MTT anti-proliferative assay, ranges stated over several cell lines; assay type: cell-based; conditions: Homo sapiens
HepG-2 cells [2] = test: Annexin V-FITC/PI apoptosis assay; assay type: cell-based, human; conditions: HepG-2, 1.89 µM, 24 h
Method: Annexin V and PI double staining assay[51] was carried out to explore the proposed apoptotic effect of the synthesised compounds. Compound 25 as a representative example was tested against HepG-2 cells. In this test, HepG-2 cells were incubated with compound 25 at a concentration of 1.89 µM for 24 h.
The effect of compound 25 on apoptosis induction was analysed using Annexin V-FITC/PI apoptosis detection kit using flowcytometer[51]^,[55]^,[56] as illustrated in Supplementary data.

HepG-2 cells [3] = test: Cell cycle analysis by flow cytometry; assay type: cell-based, human; conditions: HepG-2, 1.89 µM, 24 h
Method: The impact of the most promising compound 25 on cell cycle distribution was assessed. Such analysis gave a better insight into the effect of the synthesised compounds on cancer cell growth inhibition. HepG-2 cells were utilised in this test. The reported method described by Wand et al.[50] was followed.
The effect of the most promising compound 25 on cell cycle was evaluated using flowcytometer[50]^,[53]^,[54] as illustrated in Supplementary data.

[4] = HCT-116, MTT, mean ± SD of three experiments, read-out: IC50 HCT-116
[5] = HepG2, MTT, mean ± SD of three experiments, read-out: IC50 HepG-2
[6] = MCF7, MTT, mean ± SD of three experiments, read-out: IC50 MCF-7
[7] = range over HepG-2, HCT-116 and MCF-7 and over the listed compounds, read-out: IC50 values ranging (all tested cell lines)
[8] = range over HCT-116 and MCF-7 and over the listed compounds, read-out: IC50 values ranging (HCT-116 and MCF-7)

IC50 (tubulin) [µM]	melting point [°C]	IC50 (HCT-116; [4]) [µM]	IC50 (MCF-7; [6]) [µM]	IC50 [1, 7] [µM]	IC50 [1, 8] [µM]	SMILES	IC50 (HepG-2; [5]) [µM]	further results
0.0374	141 to 142	5.85 ± 0.3	7.34 ± 0.2	1.78 to 9.19		COc1ccc2nc(Cl)c(-c3cc(-c4cc(OC)c(OC)c(OC)c4)nc(=S)[nH]3)cc2c1 [Compound 28, 6–(2-Chloro-6-methoxyquinolin-3-yl)-4–(3,4,5-trimethoxyphenyl)pyrimidine-2(1H)-thione]	5.47 ± 0.2	
0.0105	180 to 181	6.48 ± 0.2	9.89 ± 0.4		6.48 to 10.3	COc1ccc2nc(Cl)c(-c3cc(-c4ccc(Cl)cc4)nc(=O)[nH]3)cc2c1 [Compound 32, 6–(2-Chloro-6-methoxyquinolin-3-yl)-4–(4-chlorophenyl)pyrimidin-2(1H)-one]	8.16 ± 0.2	
0.0472	171 to 172	8.5 ± 0.2	10.3 ± 0.5		6.48 to 10.3	COc1ccc2nc(Cl)c(-c3cc(-c4ccc(N)cc4)nc(=O)[nH]3)cc2c1 [Compound 33, 4–(4-Aminophenyl)-6–(2-chloro-6-methoxyquinolin-3-yl)pyrimidin-2(1H)-one]	9.37 ± 0.4	

The remaining lines, values behind:

SMILES	IC50 (tubulin) [µM]	melting point [°C]	IC50 (HCT-116; [4]) [µM]	IC50 (MCF-7; [6]) [µM]	IC50 [1, 7] [µM]	IC50 [1, 8] [µM]	IC50 (HepG-2; [5]) [µM]	further results
COc1ccc2nc(Cl)c(C3CC(c4ccc(N)cc4)=NN3c3ccc([N+](=O)[O-])cc3[N+](=O)[O-])cc2c1 (stereo not shown) [Compound 24, 4-[5–(2-Chloro-6-methoxyquinolin-3-yl)-1–(2,4-dinitrophenyl)-4,5-dihydro-1H-pyrazol-3-yl]aniline]	0.146	139 to 140						IC50 (HCT-116; HCT-116, read-out: IC50 HCT-116): 4.18 ± 0.2 µM; IC50 (HepG-2; HepG2, read-out: IC50 HepG-2): 3.14 ± 0.1 µM; IC50 (MCF-7; MCF7, read-out: IC50 MCF-7): 4.97 ± 0.1 µM; IC50 ([1]; read-out: IC50 values ranging (all tested cell lines)): 1.78 to 9.19 µM
COc1ccc2nc(Cl)c(C3CC(c4cc(OC)c(OC)c(OC)c4)=NN3c3ccc([N+](=O)[O-])cc3[N+](=O)[O-])cc2c1 (stereo not shown) [Compound 25, 2-Chloro-3-[1–(2,4-dinitrophenyl)-3–(3,4,5-trimethoxyphenyl)-4,5-dihydro-1H-pyrazol-5-yl]-6-methoxyquinoline]	0.0413	135 to 136	1.43 ± 0.1	4.21 ± 0.1	1.78 to 9.19		1.89 ± 0.2	apoptotic effect relative to control (HepG-2 cells [2]): thirteen times more than the control; Apoptosis Early (HepG-2 cells [2]; control 0.67): 7.66%; Apoptosis Late (HepG-2 cells [2]; control 0.72): 11.39%; Necrosis (HepG-2 cells [2]; control 1.18): 2.41%; apoptotic effect (early and late apoptosis) (HepG-2 cells [2]; control 1.39%): 19.05%; times of colchicine cytotoxic activity, HCT-116 (HCT-116; ratio of IC50 to colchicine): 6.51 times; times of colchicine cytotoxic activity, HepG-2 (HepG-2; ratio of IC50 to colchicine): 3.91 times; times of colchicine cytotoxic activity, MCF-7 (MCF-7; ratio of IC50 to colchicine): 2.47 times; effect on cell cycle (HepG-2 cells [3]): arrest the cell cycle at G2/M phase; Cell cycle distribution %Pre-G1 (HepG-2 cells [3]; control 2.57): 21.46%; Cell cycle distribution %G2-M (HepG-2 cells [3]; control 13.8): 30.17%; Cell cycle distribution %S (HepG-2 cells [3]; control 24.83): 28.95%; Cell cycle distribution %G0-G1 (HepG-2 cells [3]; control 61.37): 40.88%
COc1ccc2nc(Cl)c(-c3cc(-c4ccc(Cl)cc4)nc(=S)[nH]3)cc2c1 [Compound 26, 6–(2-Chloro-6-methoxyquinolin-3-yl)-4–(4-chlorophenyl)pyrimidine-2(1H)-thione]	0.0345	155 to 156	2.24 ± 0.2	5.55 ± 0.2	1.78 to 9.19		3.62 ± 0.1	
